Measurements as given in patent US20120053076A1, “METHODS FOR IDENTIFICATION” (Cambridge Enterprise Limited, priority 2009, published 2012).
Like-named read-outs stand apart in the source and are kept apart here.

How the values were obtained:
[1] = system: THP-1 cells; assay: MCP-1 induced THP-1 cell migration, Transwell assay; assay type: cell-based, human
Experimental: Leukocyte migration was measured using the 96-well format micro Transwell® assay system from Neuroprobe (Gaithersburg, Md., USA). In principle, this assay consists of two chambers separated by a porous membrane. The chemoattractant is placed in the lower compartment and the cells are placed in the upper compartment.
The method was performed essentially as previously described (Reckless & Grainger (1999) Biochem. J. 340:803-11).
First, the cell suspension to be placed in the upper compartment was prepared. The THP-1 cells were pelleted by centrifugation (770×g; 4 mins) and washed with Geys Balanced Salt Solution with 1 mg/ml BSA (GBSS+BSA). This wash was then repeated, and the cells re-pelleted before being resuspended in a small volume of GBSS+BSA for counting, for example using a standard haemocytometer.
The volume of GBSS+BSA was then adjusted depending on the number of cells present so that the cells were at final density of 4.45×10^6 cells per ml of GBSS+BSA. This ensured that there were 100,000 THP-1 cells in each 25 μl of the solution to be placed in the upper chamber of the plate.
The suspension of THP-1 cells at 4.45×10^6 cells/ml was divided into three pots. […] To the second pot, the BSCI was added at the same concentration as in the first pot, but additionally the sstr2 antagonist was also added (for example BIM 23454 [Tulipano et al. (2002) 143:1218-24] or BIM 23627 were added at 66 nM final concentration from a stock solution in GBSS). To the third pot, GBSS+BSA plus vehicle as appropriate was added so that the volumes in three pots are equal, acting as a control.
Next, the chemoattractant solution to be placed in the lower compartment was prepared. MCP-1 was diluted in GBSS+BSA to give a final concentration of 25 ng/ml (after all additions). Note that, as recommended by Frow et al (Med. Res. Rev. 24:276-98) this is the concentration of MCP-1 which induces maximal migration in this system. This solution was divided into three pots, as for the cell suspension. To one pot, the BSCI was added to the same final concentration as was added to the cell suspension, in the second pot the BSCI and the sstr2 antagonist were both added at the same concentration as previously added to the cell suspension, while to the remaining pot GBSS+BSA plus vehicle as appropriate was added so that the volumes in the three pots were equal.
Once the chemoattractant solutions for the lower wells and cell solutions for the upper chambers were prepared, the migration chamber was assembled. 29 μl of the appropriate chemoattractant solution was placed into the lower well of the chamber. Assays were performed with at least triplicate determinations of each condition. Once all the lower chambers were filled, the porous membrane was applied to the chamber in accordance with the manufacturer's instructions. Finally, 25 μl of the appropriate cell solution was applied to each upper chamber. A plastic lid was placed over the entire apparatus to prevent evaporation.
The assembled chamber was incubated at 37° C., 5% CO2, for 2 hours.
At the end of the incubation, the liquid cell suspension was gently removed from the upper chamber, 20 μl of ice-cold 20 mM EDTA in PBS was added to the upper chamber, and the apparatus was incubated at 4° C. for 15 mins. This procedure caused any cells adhering to the underside of the membrane to fall into the lower chamber.
After this incubation the filter was carefully flushed with GBSS+BSA to wash off the EDTA, and then the filter was removed.
The number of cells migrated into the lower chamber under each condition can then be determined by a number of methods, including direct counting, labelling with fluorescent or radioactive markers or through the use of a vital dye. Typically, we utilised the vital dye MTT.

[2] = system: TNF-alpha production in response to bacterial endotoxin; assay: Sub-lethal endotoxemia model, serum TNF-alpha after LPS; assay type: in vivo; conditions: mouse, serum 2 hours after LPS
Experimental: We selected the sub-lethal endotoxemia model in mouse, because this has been well characterised in our laboratory (see for example Fox et al. (2002) J. Med. Chem. 45:360-70; Fox et al. (2005) J. Med. Chem. 48:867-74). The extent of systemic inflammation in response to a single intraperitoneal injection of bacterial lipopolysaccharide (LPS) can be estimated by measuring serum TNF-alpha 2 hours post challenge.
Methods: Mice (CD1 strain; adult males; 6 per group) were treated with BSCI (in an appropriate vehicle) or with vehicle alone by an appropriate route. […] Simultaneously, one set of mice at each BSCI concentration received BIM 23627 at […] by sub-cutaneous injection (a treatment condition known to suppress classical sstr2-mediated signalling, such as GH release, in rats; Tulipano et al. (2002) 143:1218-24). […]
After, a further 2 hours, the animals were sacrificed by CO2 asphyxiation, and blood was drawn by cardiac puncture. Serum was prepared by conventional methods, and the level of TNF-alpha in serum was measured using an ELISA (R&D Systems; Murine Quantikine code# MTA00) performed in accordance with the manufacturer's instructions. […]

[3] = system: Panc-2H4 cells; assay: Human Panc-2H4 insulin suppression assay; assay type: cell-based
Description: Two different assays for “classical” sstr2 functions were adopted: (1) cultured foetal rat pituitary cells secreted growth hormone which is inhibited by sstr2 agonists in a dose-dependent fashion and (2) selected glucose-sensitive sub-clones of the human Panc-1 cell line secrete insulin which is inhibited by sstr2 agonists in a dose-dependent fashion.
Glucose-sensitive sub-clones of the human Panc-1, a cell line derived from a pleiomorphic epithelioid carcinoma of the exocrine pancreas, were obtained essentially as described by Hamil et al. (2008) Biomed. Sci. Instrum. 44:441-6. Briefly, Panc-1 cells were subcultured in 24 well plates, and the medium was supplemented with an additional 5% glucose. […] The resulting sub-lines were then tested for glucose sensitivity by preparing wells of a 96-well plate (5×10^4 cells per well) which were then exposed to cultured medium containing a range of glucose concentrations (low glucose DMEM, DMEM, DMEM+1% glucose, DMEM+2.5% glucose and DMEM+5% glucose). After 24 hrs incubation, the conditioned medium was collected and assayed for insulin secretion by ELISA (Linco; cat# EZHI-14K) in accordance with the manufacturer's instructions.
Further 96 well plates were prepared using Panc-2H4 (5×10^4 cells per well) in DMEM. After 24 hrs, the medium was switched to DMEM+5% glucose containing various test agents at various concentrations (triplicate wells per condition). After a further 24 hrs, the conditioned medium was harvested and the concentration of insulin was determined by ELISA as described above.
Results were reported as the mean±SD, expressed as the fold change from cells in the presence of vehicle only.

Molecule: (S)-3-(2′,2′-dimethyldodecanoyl)amino-caprolactam [BN83250]
- Human chemokine-induced THP-1 migration assay Max effect ([1]; Table 3): 100%
- Chemokine-induced THP-1 cell migration assay (“BSCI” target) Max Effect ([1]; Table 5): 100%
- Inhibition of TNF-alpha production in response to endotoxin, in words [2]: dramatically inhibited
- EC50 ([3]; Table 3, read-out: Human Panc-2H4 insulin suppression assay ED50): 1000 nM
- Human Panc-2H4 insulin suppression assay Max effect ([3]; Table 3, suppression compared to vehicle): 28%
- Panc-2H4 insulin suppression assay (“classical” target) Max Effect ([3]; Table 5): 28%
- EC50 ([3]; Table 5, read-out: Panc-2H4 insulin suppression assay (“classical” target) ED50): 1000 nM

Molecule: CC(C)(C)C(=O)N[C@H]1CCCNC1=O [Valerolactam, (S)-3-(2′,2′-dimethylpropionoylamino)-tetrahydropyridin-2-one]
- Emax ([1]; Homo sapiens, THP-1, read-out: Human chemokine-induced THP-1 migration assay Max effect): 100%
- Inhibition of MCP-1 induced THP-1 cell migration, in words ([1]; MCP-1 25 ng/ml): inhibits MCP-1 induced cell migration in a dose-dependent manner
- Inhibition of TNF-alpha production in response to endotoxin, in words [2]: dramatically inhibited
- EC50 ([3]; Homo sapiens, Table 3, read-out: Human Panc-2H4 insulin suppression assay ED50): > 1000 nM
